Measured values taken from patent US6737383B1, “Herbicidal oxadiazolidines” (priority 1999, dated 2004).

Legend:
bedstraw = assay: Test B pre/postemergence bedstraw; assay type: in vivo, Galium aparine
How it was run: (§1)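 Response is a visual 0-to-10 score relative to untreated plants, where 0 means no effect and 10 means complete control, taken twelve to sixteen days after application. Treatments went onto soil at planting and onto foliage of 1- to 4-leaf plants, using a surfactant-containing non-phytotoxic solvent.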

blackgrass = assay: Test B pre/postemergence blackgrass; assay type: in vivo, Alopecurus myosuroides
How it was run: as §1

surinam grass = assay: Test B pre/postemergence surinam grass; assay type: in vivo, Brachiaria decumbens
How it was run: as §1

cocklebur = assay: Test B pre/postemergence cocklebur; assay type: in vivo, Xanthium strumarium
How it was run: as §1

corn = assay: Test B pre/postemergence corn; assay type: in vivo, Zea mays
How it was run: as §1

crabgrass = assay: Test B pre/postemergence crabgrass; assay type: in vivo, Digitaria sanguinalis
How it was run: as §1

pigweed = assay: Test B pre/postemergence pigweed; assay type: in vivo, Amaranthus retroflexus
How it was run: as §1

rape = assay: Test B pre/postemergence rape; assay type: in vivo, Brassica napus
How it was run: as §1

soybean = assay: Test B pre/postemergence soybean; assay type: in vivo, Glycine max
How it was run: as §1

sugar beet = assay: Test B pre/postemergence sugar beet; assay type: in vivo, Beta vulgaris
How it was run: as §1

velvetleaf = assay: Test B pre/postemergence velvetleaf; assay type: in vivo, Abutilon theophrasti
How it was run: as §1

wheat = assay: Test B pre/postemergence wheat; assay type: in vivo, Triticum aestivum
How it was run: as §1

wild oat = assay: Test B pre/postemergence wild oat; assay type: in vivo, Avena fatua
How it was run: as §1

purple nutsedge = assay: Test B pre/postemergence purple nutsedge; assay type: in vivo, Cyperus rotundus
How it was run: as §1

smallflower flatsedge = assay: Test B flood test smallflower flatsedge; assay type: in vivo, Cyperus difformis
How it was run: (§2)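 Each value is a visual injury score relative to controls, with 10 meaning complete control and 0 no effect. Evaluation took place twelve to sixteen days after the 2-leaf-stage plants were treated and kept in the greenhouse.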

bamyardgrass = assay: Test B flood test barnyardgrass; assay type: in vivo, Echinochloa crus-galli
How it was run: as §2

[1] = Postemergence, Rate 62 g/ha, scale 0 to 10, 0 is no effect, 10 is complete control
[2] = Postemergence, Rate 250 g/ha, scale 0 to 10, 0 no effect, 10 complete control
[3] = Preemergence, Rate 62 g/ha, scale 0 to 10 (0 no effect, 10 complete control)
[4] = Preemergence, Rate 125 g/ha, scale 0 to 10 (0 no effect, 10 complete control)
[5] = Preemergence, Rate 250 g/ha, scale of 0 to 10 where 0 is no effect and 10 is complete control
[6] = Preemergence, Rate 500 g/ha, scale 0 (no effect) to 10 (complete control)
[7] = Rate 125 g/ha, Postemergence, scale 0 to 10, 0 no effect, 10 complete control
[8] = Rate 500 g/ha, Postemergence, scale 0 to 10, 0 no effect, 10 complete control
[9] = Rate 125 g/ha, Postemergence section (flood test species), scale 0 to 10, 0 no effect, 10 complete control
[10] = Rate 500 g/ha, listed under Postemergence (flood test species), scale 0 to 10, 0 no effect, 10 complete control
[11] = flood test, listed under Postemergence, Rate 250 g/ha, scale 0 to 10, 0 no effect, 10 complete control

CCN(C(=O)n1oc(=O)n(Cc2cccs2)c1=O)C1CCCCC1 [Compound 82]
Bedstraw plant response rating (bedstraw; [1]): 0
Bedstraw plant response rating (bedstraw; [2]): 0
Bedstraw plant response rating (bedstraw; [3]): 0
Plant response rating, Bedstraw (bedstraw; [4]): 0
Plant response rating, Bedstraw (bedstraw; [5]): 0
Bedstraw plant response rating (bedstraw; [6]): 0
Bedstraw plant response rating (bedstraw; [7]): 0
Bedstraw plant response rating (bedstraw; [8]): 1
Blackgrass plant response rating (blackgrass; [1]): 0
Blackgrass plant response rating (blackgrass; [2]): 0
Blackgrass plant response rating (blackgrass; [3]): 0
Plant response rating, Blackgrass (blackgrass; [4]): 0
Plant response rating, Blackgrass (blackgrass; [5]): 0
Blackgrass plant response rating (blackgrass; [6]): 0
Blackgrass plant response rating (blackgrass; [7]): 0
Blackgrass plant response rating (blackgrass; [8]): 3
B. signalgrass plant response rating (surinam grass; [1]): 0
B. signalgrass plant response rating (surinam grass; [2]): 0
B. signalgrass plant response rating (surinam grass; [3]): 0
Plant response rating, B. signalgrass (surinam grass; [4]): 0
Plant response rating, B. signalgrass (surinam grass; [5]): 0
B. signalgrass plant response rating (surinam grass; [6]): 0
B. signalgrass plant response rating (surinam grass; [7]): 0
B. signalgrass plant response rating (surinam grass; Rate 500 g/ha, Postemergence, scale of 0 to 10 where 0 is no effect and 10 is complete control): 0
Cocklebur plant response rating (cocklebur; [1]): 0
Cocklebur plant response rating (cocklebur; [2]): 0
Cocklebur plant response rating (cocklebur; [3]): 0
Plant response rating, Cocklebur (cocklebur; [4]): 0
Plant response rating, Cocklebur (cocklebur; [5]): 0
Cocklebur plant response rating (cocklebur; [6]): 0
Cocklebur plant response rating (cocklebur; [7]): 0
Cocklebur plant response rating (cocklebur; [8]): 0
Corn plant response rating (corn; [1]): 0
Corn plant response rating (corn; [2]): 0
Corn plant response rating (corn; [3]): 0
Plant response rating, Corn (corn; [4]): 0
Plant response rating, Corn (corn; [5]): 0
Corn plant response rating (corn; [6]): 0
Corn plant response rating (corn; [7]): 0
Corn plant response rating (corn; [8]): 0
Crabgrass plant response rating (crabgrass; [1]): 0
Crabgrass plant response rating (crabgrass; [2]): 0
Crabgrass plant response rating (crabgrass; [3]): 0
Plant response rating, Crabgrass (crabgrass; [4]): 0
Plant response rating, Crabgrass (crabgrass; [5]): 0
Crabgrass plant response rating (crabgrass; [6]): 0
Crabgrass plant response rating (crabgrass; [7]): 0
Crabgrass plant response rating (crabgrass; [8]): 0
Redroot pigweed plant response rating (pigweed; [1]): 0
Redroot pigweed plant response rating (pigweed; [2]): 0
Redroot pigweed plant response rating (pigweed; [3]): 0
Plant response rating, Redroot pigweed (pigweed; [4]): 0
Plant response rating, Redroot pigweed (pigweed; [5]): 0
Redroot pigweed plant response rating (pigweed; [6]): 0
Redroot pigweed plant response rating (pigweed; [7]): 0
Redroot pigweed plant response rating (pigweed; [8]): 0
Rape plant response rating (rape; [1]): 0
Rape plant response rating (rape; [2]): 0
Rape plant response rating (rape; [3]): 0
Plant response rating, Rape (rape; [4]): 0
Plant response rating, Rape (rape; [5]): 0
Rape plant response rating (rape; [6]): 0
Rape plant response rating (rape; [7]): 0
Rape plant response rating (rape; [8]): 0
Soybean plant response rating (soybean; [1]): 0
Soybean plant response rating (soybean; [2]): 0
Soybean plant response rating (soybean; [3]): 0
Plant response rating, Soybean (soybean; [4]): 0
Plant response rating, Soybean (soybean; [5]): 0
Soybean plant response rating (soybean; [6]): 0
Soybean plant response rating (soybean; [7]): 0
Soybean plant response rating (soybean; [8]): 1
Sugarbeets plant response rating (sugar beet; [1]): 0
Sugarbeets plant response rating (sugar beet; [2]): 0
Sugarbeets plant response rating (sugar beet; [3]): 0
Plant response rating, Sugarbeets (sugar beet; [4]): 0
Plant response rating, Sugarbeets (sugar beet; [5]): 0
Sugarbeets plant response rating (sugar beet; [6]): 0
Sugarbeets plant response rating (sugar beet; [7]): 0
Sugarbeets plant response rating (sugar beet; [8]): 2
Velvetleaf plant response rating (velvetleaf; [1]): 0
Velvetleaf plant response rating (velvetleaf; [2]): 0
Velvetleaf plant response rating (velvetleaf; [3]): 0
Plant response rating, Velvetleaf (velvetleaf; [4]): 0
Plant response rating, Velvetleaf (velvetleaf; [5]): 0
Velvetleaf plant response rating (velvetleaf; [6]): 0
Velvetleaf plant response rating (velvetleaf; [7]): 0
Velvetleaf plant response rating (velvetleaf; [8]): 0
Wheat plant response rating (wheat; [1]): 0
Wheat plant response rating (wheat; [2]): 0
Wheat plant response rating (wheat; [3]): 0
Plant response rating, Wheat (wheat; [4]): 0
Plant response rating, Wheat (wheat; [5]): 0
Wheat plant response rating (wheat; [6]): 0
Wheat plant response rating (wheat; [7]): 0
Wheat plant response rating (wheat; [8]): 0
Wild oats plant response rating (wild oat; [1]): 0
Wild oats plant response rating (wild oat; [2]): 0
Wild oats plant response rating (wild oat; [3]): 0
Plant response rating, Wild oats (wild oat; [4]): 0
Plant response rating, Wild oats (wild oat; [5]): 0
Wild oats plant response rating (wild oat; [6]): 0
Wild oats plant response rating (wild oat; [7]): 0
Wild oats plant response rating (wild oat; [8]): 0
Nutsedge plant response rating (purple nutsedge; [1]): 0
Nutsedge plant response rating (purple nutsedge; [2]): 0
Nutsedge plant response rating (purple nutsedge; [3]): 0
Plant response rating, Nutsedge (purple nutsedge; [4]): 0
Plant response rating, Nutsedge (purple nutsedge; [5]): 0
Nutsedge plant response rating (purple nutsedge; [6]): 0
Nutsedge plant response rating (purple nutsedge; [7]): 0
Nutsedge plant response rating (purple nutsedge; [8]): 0
S. Flatsedge plant response rating (smallflower flatsedge; [1]): 0
S. Flatsedge plant response rating (smallflower flatsedge; [9]): 0
S. Flatsedge plant response rating (smallflower flatsedge; [10]): 0
S. Flatsedge plant response rating (smallflower flatsedge; [11]): 0
Barnyardgrass plant response rating (bamyardgrass; [1]): 0
Barnyardgrass plant response rating (bamyardgrass; [9]): 0
Barnyardgrass plant response rating (bamyardgrass; [10]): 0
Barnyardgrass plant response rating (bamyardgrass; [11]): 0
